We go through three compounds from patent publication US20150284667A1, “ALCOHOLIC BEVERAGES WITH HEALTH-BENEFITTING AND PROTECTIVE CHARACTERISTICS” (Cerebral Spirits Corporation, priority 2014, published 2015).

Data set [1] deals with breast cancer and liver cancer. The settings on record: animal studies; cited from earlier work.
In a further data set the test system is hepatocytes. To be noted: cited from earlier work.

For `COc1cc(/C=C/C(=O)O)ccc1O` [Ferulic acid, ferulic acid], in data set [1], the Antitumor activity entry is given as “direct antitumor activity”. Regarding `CCNC(=O)CC[C@H](N)C(=O)O` [L-theanine, gamma-glutamylethylamide], the “Protection of hepatocytes against ethanol-induced cell cytotoxicity” value in the data set on hepatocytes was “significantly protect hepatocytes”. Moreover, the Solubility in ethanol result in “Solubility in ethanol” is listed as “ethanol soluble”. Regarding `Oc1ccc(C=Cc2cc(O)cc(O)c2)cc1` [Resveratrol, resveratrol], the Solubility in ethanol result in the data set “Solubility in ethanol” is “ethanol soluble”.
